From patent US20080319065A1, “Systemic and Intrathecal Effects of a Novel Series of Phospholipase A2 Inhibitors on Hyperalgesia and Spinal Pge2 Release” (The Regents of the University of California, priority 2005, published 2008)

Tests used:
GVIA PLA2 = target: T1, GVIA PLA2 (Homo sapiens, UniProt O60733); assay: Time dependence and reversibility of GVIA PLA2 inhibition; type: biochemical
T1 sequence (O60733 1-806): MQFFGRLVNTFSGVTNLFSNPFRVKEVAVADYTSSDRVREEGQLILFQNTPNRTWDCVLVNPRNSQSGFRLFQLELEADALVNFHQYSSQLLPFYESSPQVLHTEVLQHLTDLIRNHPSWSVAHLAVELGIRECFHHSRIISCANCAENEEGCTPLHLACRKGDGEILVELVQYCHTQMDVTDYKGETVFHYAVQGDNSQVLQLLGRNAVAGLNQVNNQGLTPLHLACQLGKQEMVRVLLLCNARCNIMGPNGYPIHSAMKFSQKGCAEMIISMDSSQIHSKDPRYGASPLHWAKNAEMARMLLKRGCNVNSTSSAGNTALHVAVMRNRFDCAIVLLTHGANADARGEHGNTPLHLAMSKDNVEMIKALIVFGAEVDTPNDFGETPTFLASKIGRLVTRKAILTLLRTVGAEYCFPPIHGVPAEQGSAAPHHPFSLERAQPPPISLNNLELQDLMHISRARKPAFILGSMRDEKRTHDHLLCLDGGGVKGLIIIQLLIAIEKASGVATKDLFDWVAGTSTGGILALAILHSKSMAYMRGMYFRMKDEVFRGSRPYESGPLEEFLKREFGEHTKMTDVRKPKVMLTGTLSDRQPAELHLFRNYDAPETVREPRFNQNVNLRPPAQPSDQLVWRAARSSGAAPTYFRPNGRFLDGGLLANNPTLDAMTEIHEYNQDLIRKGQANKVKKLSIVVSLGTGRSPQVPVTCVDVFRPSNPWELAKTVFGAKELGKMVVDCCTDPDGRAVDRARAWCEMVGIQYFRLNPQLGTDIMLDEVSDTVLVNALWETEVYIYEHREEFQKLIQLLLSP
Description: GVIA PLA2 (25 ng) was preincubated with either AX010 or AX0073 (5 μM) for 0, 5, 15 or 30 minutes and then assayed in the standard GVIA PLA2 assay mix containing 5 μM inhibitor. The final concentration of the inhibitors in the assay mix was 0.01 mole fraction, and the samples were incubated for 30 minutes at 40° C. […] In the latter respect, 25 ng of GVIA PLA2 was pre-incubated with 10 μM AX010 or AX073 for 10 minutes before diluting the enzyme 1:50 into the standard GVIA PLA2 assay mix lacking inhibitor, and incubating for 30 minutes at 40° C. The final inhibitor concentration in these assays was 0.0004 mole fraction, well below surface concentrations that either AX010 or AX073 inhibit the enzyme.

[1] = target: T2, Group IVA cPLA2 (GIVA PLA2) (Homo sapiens, UniProt P47712); assay: In vitro Group IVA cPLA2 mixed micelle assay; type: biochemical
T2 sequence (P47712 1-749): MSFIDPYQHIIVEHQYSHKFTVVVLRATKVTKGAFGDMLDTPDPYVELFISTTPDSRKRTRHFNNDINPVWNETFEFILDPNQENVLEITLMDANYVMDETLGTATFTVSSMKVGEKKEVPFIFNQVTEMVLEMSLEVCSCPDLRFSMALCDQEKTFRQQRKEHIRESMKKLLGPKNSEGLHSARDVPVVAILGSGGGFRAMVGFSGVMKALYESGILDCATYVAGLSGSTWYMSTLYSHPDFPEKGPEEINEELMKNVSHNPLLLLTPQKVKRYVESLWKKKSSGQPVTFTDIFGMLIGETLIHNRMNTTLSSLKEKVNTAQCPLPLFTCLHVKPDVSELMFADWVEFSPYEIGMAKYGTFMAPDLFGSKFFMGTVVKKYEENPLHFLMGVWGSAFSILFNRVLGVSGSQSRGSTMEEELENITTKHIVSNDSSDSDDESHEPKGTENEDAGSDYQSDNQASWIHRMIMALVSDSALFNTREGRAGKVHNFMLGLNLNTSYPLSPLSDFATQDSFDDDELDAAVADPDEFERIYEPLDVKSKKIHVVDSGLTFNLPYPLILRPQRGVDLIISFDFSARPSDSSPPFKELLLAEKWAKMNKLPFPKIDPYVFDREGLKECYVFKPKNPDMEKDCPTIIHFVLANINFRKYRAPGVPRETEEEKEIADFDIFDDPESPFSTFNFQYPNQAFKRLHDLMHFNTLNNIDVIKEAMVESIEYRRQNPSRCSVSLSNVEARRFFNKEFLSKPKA
Description: (§1) Numerous 2-oxoamides were tested for inhibition of PLA2s in in vitro assay systems. The data, summarized in Tables 1a, 1b and 2 are represented as XI(50) values unless otherwise noted. XI(50) is defined as the inhibitor concentration that produced 50% inhibition. XI(50) is used as opposed to the more common IC50 because GIVA and GVIA PLA2 are active at a two-dimensional lipid interface rather than in three-dimensional solution. (Deems, Anal. Biochem., 287:1-16, 2000). The 2-oxoamide inhibitors likely partition to the micelle interface and therefore must be represented as a percentage of surface concentration (mole fraction) as opposed to bulk concentration (molar units). (Kokotos, et al., J. Med. Chem., 45:2891-2893, 2002).
(§2) In vitro Group IV cPLA2 and Group VI iPLA2 assays were done as previously described (Kokotos, et al., supra, 2002). Briefly, 100 μM lipid substrate and 100,000 cpm radiolabeled analog were dried down under N2 and dissolved in assay buffer containing 400 μM Triton X-100 to yield a mixed micelle substrate solution. Inhibitors dissolved in DMSO were added to the reaction tubes and allowed to incubate with substrate for five minutes at 40° C. Pure enzyme was added to yield a final volume of 500 μl, and digestion was carried out at 40° C. for 30 minutes. Reactions were quenched and extracted using the Dole method and products were quantified by liquid scintillation counting. Percent inhibition was determined at a range of inhibitor mole fraction concentrations for XI(50) calculations.

[2] = target: T3, Group VIA iPLA2 (GVIA PLA2) (Homo sapiens, UniProt O60733); assay: In vitro Group VIA iPLA2 mixed micelle assay; type: biochemical
T3 sequence (O60733 1-806): T1 sequence (O60733 1-806)
Description: as §1, §2

[3] = system: murine RAW 264.7 macrophage-like cell line; assay: Long-term LPS stimulation, PGE2 release; type: cell-based; conditions: low μM range
Description: Several 2-oxoamides were tested in the long-term lipopolysaccharide (LPS) stimulation pathway in the murine RAW 264.7 macrophage-like cell line. (Raschke, et al., Cell, 1978, 15, 261-267). This pathway requires GIVA PLA2 activity and results in the extracellular release of many eicosanoid compounds including the prostaglandin PGE2. (Gijon, et al., leukoc. Biol., 1999, 65, 330-336). […] In the low μM range, AX041 and AX073 reduced PGE2 release by roughly 40% (FIG. 1(D)). At 1 μM and 5 μM concentrations, small activations were often seen. The in vitro and cellular results together are consistent with the known roles of GVIA PLA2 given that AX010, a selective GVIA inhibitor, had no cellular effect. […] Inhibitors selective for GIVA PLA2 or dual specificity inhibitors reduce PGE2 levels, also consistent with the known role of GIVA PLA2 in PGE2 production.

GV sPLA2 = target: T4, GV sPLA2 (Homo sapiens, UniProt P39877); assay: GV sPLA2 activity assay; type: biochemical; conditions: at 0.091 mole fraction
T4 sequence (P39877 21-138): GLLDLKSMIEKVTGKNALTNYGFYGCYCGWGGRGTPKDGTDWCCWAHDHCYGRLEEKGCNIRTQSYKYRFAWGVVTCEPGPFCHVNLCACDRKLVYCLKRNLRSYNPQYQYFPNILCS
Description: GV sPLA2 activity was measured in a similar assay. The final assay buffer was composed of 50 mM Tris-HCl (pH 8.0) and 5 mM CaCl2. Each assay was performed in 500 μL total volume made up of 100 μL of 5× substrate solution (20 μL of 10 mM Triton X-100 and 80 μL assay buffer), 390 μL assay buffer, 10 μL GV sPLA2 solution (1 μL of 40 ng/μL stock and 9 μL assay buffer), and 5 μL of DMSO or 2-oxoamide in DMSO. The 5× substrate solution was prepared by drying down the phospholipids (in organic solvent) with N2. The appropriate volume of 10 mM Triton X-100 was added, heated and vortexed until clear. Then assay buffer was added to make a 5× substrate solution. The final mixed micelles were at 400 μM Triton X-100 and 100 μM DPPC (of which 100,000 cpm of ^14C-DPPC).

COX-1 and COX-2 proteins = assay: COX Activity Assay kit, in vitro cyclooxygenase activity; type: biochemical; conditions: 50 μM
Description: Inhibitors dissolved in DMSO (study compounds) or ethanol (indomethacin) were added to 50 μM final concentration and allowed to incubate with the assay mixture including enzyme for 5 minutes. After addition of TMPD and arachidonic acid, samples were mixed and allowed to incubate 5 minutes at room temperature before reading absorbance at 595 nm to determine results. Results were calculated and percent inhibition values derived.

| SMILES | melting point | reversibility of GVIA PLA2 inhibition (GVIA PLA2; pre-incubated with 10 μM for 10 minutes, diluted 1:50, final 0.0004 mole fraction) | time-dependent inhibition of GVIA PLA2 (GVIA PLA2; preincubated 0, 5, 15 or 30 minutes, 5 μM inhibitor, 0.01 mole fraction) | Inhibition of GIVA PLA2, XI(50) [1] | Inhibition of GVIA PLA2, XI(50) [2] | reduction of PGE2 release [3] | efficacy against sPLA2 (GV sPLA2) | inhibition of cyclooxygenase activity (COX-1 and COX-2 proteins) |
| --- | --- | --- | --- | --- | --- | --- | --- | --- |
| CCCCCCCCCCCCCCC(=O)C(=O)NC(C=CC(=O)OC)CCCC (centres unmarked) [AX073, 4-(2-Oxo-hexadecanoylamino)-oct-2-enoic acid methyl ester] | 48 to 50 °C | freely reversible inhibitors | no increased potency with prolonged incubation | XI(50) =0.018 ± 0.010 mole fraction | XI(50) =0.032 ± 0.010 mole fraction | roughly 40% | 75.3% | – |
| COc1ccc2c(c1)c(CC(=O)O)c(C)n2C(=O)c1ccc(Cl)cc1 [indomethacin, reference compound] | – | – | – | – | – | – | – | near complete inhibition |
